From patent US12539292B2, “BRM targeting compounds and associated methods of use” (Arvinas Operations, Inc., priority 2018, dated 2026)
Where two headings read alike, the source gives them in different places.

Target: T1, BRM (Homo sapiens, UniProt P51531)
T1 construct: In-Cell Western Screen of BRM Degradation in SW1573 Cells; endogenous in cells; host or cells: SW1573
Experiment: In-cell Western screen of BRM degradation in SW1573 cells (Dmax and DC50)
Assay type: cell-based
Settings: for DC50: BRM degradation
How it was run: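 BRM levels were read by LI-COR in-cell Western after two-channel (800/680 nm) immunostaining of fixed, Triton-permeabilised SW1573 cells.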

T1 sequence (P51531 whole entry): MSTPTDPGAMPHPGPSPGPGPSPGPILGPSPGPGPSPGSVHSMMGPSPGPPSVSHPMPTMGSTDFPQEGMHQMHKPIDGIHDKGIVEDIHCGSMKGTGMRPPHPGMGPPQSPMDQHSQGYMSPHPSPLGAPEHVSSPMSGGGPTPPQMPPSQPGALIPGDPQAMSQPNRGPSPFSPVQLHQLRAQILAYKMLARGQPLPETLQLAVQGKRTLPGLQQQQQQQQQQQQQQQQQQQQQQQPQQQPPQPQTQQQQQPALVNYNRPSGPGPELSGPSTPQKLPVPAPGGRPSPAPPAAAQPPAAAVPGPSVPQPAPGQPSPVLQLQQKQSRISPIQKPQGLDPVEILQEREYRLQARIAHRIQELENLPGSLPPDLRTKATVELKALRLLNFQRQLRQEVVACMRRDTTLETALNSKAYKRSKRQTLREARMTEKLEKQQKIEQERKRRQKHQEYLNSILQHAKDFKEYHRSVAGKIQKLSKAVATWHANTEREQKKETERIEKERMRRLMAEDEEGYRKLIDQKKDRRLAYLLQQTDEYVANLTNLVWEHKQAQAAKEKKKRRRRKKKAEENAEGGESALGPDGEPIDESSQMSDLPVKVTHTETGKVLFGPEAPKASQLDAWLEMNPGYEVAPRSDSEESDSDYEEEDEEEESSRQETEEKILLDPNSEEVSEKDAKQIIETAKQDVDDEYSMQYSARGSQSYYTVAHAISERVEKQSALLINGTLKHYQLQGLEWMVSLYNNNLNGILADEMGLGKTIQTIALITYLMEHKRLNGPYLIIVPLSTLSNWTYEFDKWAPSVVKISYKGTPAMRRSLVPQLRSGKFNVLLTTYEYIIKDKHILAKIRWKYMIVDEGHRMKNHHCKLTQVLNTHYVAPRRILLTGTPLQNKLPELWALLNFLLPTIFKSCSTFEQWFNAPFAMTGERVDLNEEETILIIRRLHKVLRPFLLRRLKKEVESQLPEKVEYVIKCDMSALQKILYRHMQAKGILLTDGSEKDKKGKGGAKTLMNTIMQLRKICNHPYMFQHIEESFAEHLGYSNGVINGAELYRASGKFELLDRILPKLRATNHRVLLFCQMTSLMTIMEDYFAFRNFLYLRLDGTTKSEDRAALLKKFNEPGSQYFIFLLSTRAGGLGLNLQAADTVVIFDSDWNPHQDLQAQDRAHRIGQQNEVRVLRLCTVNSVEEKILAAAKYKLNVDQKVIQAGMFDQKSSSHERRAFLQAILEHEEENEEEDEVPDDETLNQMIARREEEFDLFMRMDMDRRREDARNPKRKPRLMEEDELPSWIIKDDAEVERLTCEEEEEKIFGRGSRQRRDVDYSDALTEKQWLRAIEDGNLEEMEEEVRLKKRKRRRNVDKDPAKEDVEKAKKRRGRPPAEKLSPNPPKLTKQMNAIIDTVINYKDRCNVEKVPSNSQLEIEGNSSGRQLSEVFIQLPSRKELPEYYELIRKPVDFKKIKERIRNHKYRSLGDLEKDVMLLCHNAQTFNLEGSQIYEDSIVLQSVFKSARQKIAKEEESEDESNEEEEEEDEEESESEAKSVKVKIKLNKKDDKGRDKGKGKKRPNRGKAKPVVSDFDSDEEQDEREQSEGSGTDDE

Structure (SMILES) | DC50 (read-out: BRM DC50) | DC50 (SW1573 cells, Table 2D) | further results
Cc1cc([C@@H](C(=O)N2C[C@H](O)C[C@H]2C(=O)N[C@@H](C)c2ccc(-c3scnc3C)cc2)[C@H](C)COCCn2cc(-c3cc(-c4ccccc4O)nnc3N)cn2)on1 [compound 534, (2S,4R)-1-((2S,3S)-4-(2-(4-(3-amino-6-(2-hydroxyphenyl)pyridazin-4-yl)-1 H-pyrazol-1-yl)ethoxy)-3-methyl-2-(3-methylisoxazol-5-yl)butanoyl)-4-hydroxy-N-((S)-1-(4-(4-methylthiazol-5-yl)phenyl)ethyl)pyrrolidine-2-carboxamide] | > 30 nM | – | –
Cc1ncsc1-c1ccc([C@H](C)NC(=O)[C@@H]2C[C@@H](O)CN2C(=O)[C@@H](c2cc(OCC[C@H]3CCN(C[C@H]4C[C@H](Oc5cc(N6C7CCC6CN(c6cc(-c8ccccc8O)nnc6N)C7)ccn5)C4)[C@H](C)C3)no2)C(C)C)cc1 [compound 535, (2S,4R)-1-((2R)-2-(3-(2-((2R,4S)-1-(((1r,3R)-3-((4-(3-(3-amino-6-(2-hydroxyphenyl)pyridazin-4-yl)-3,8-diazabicyclo[3.2.1]octan-8-yl)pyridin-2-yl)oxy)cyclobutyl)methyl)-2-methylpiperidin-4-yl)ethoxy)isoxazol-5-yl)-3-methylbutanoyl)-4-hydroxy-N-((S)-1-(4-(4-methylthiazol-5-yl)phenyl)ethyl)pyrrolidine-2-carboxamide] | < 2.5 nM | – | Dmax (SW1573, % degraded, when tested at the top concentration of between 0.3 and 10 μM, read-out: BRM Dmax (%)): > 75%
Cc1ncsc1-c1ccc([C@H](C)NC(=O)[C@@H]2C[C@@H](O)CN2C(=O)[C@H](c2cc(OCCN3CCC(O[C@H]4C[C@H](Oc5cc(N6C7CCC6CN(c6cc(-c8ccccc8)nnc6N)C7)ccn5)C4)CC3)no2)C(C)C)cc1 [compound 536, (2S,4R)-1-((2S)-2-(3-(2-(4-((1r,3S)-3-((4-(3-(3-amino-6-phenylpyridazin-4-yl)-3,8-diazabicyclo[3.2.1]octan-8-yl)pyridin-2-yl)oxy)cyclobutoxy)piperidin-1-yl)ethoxy)isoxazol-5-yl)-3-methylbutanoyl)-4-hydroxy-N-((S)-1-(4-(4-methylthiazol-5-yl)phenyl)ethyl)pyrrolidine-2-carboxamide] | – | > 30 nM | –
Cc1ncsc1-c1ccc([C@H](C)NC(=O)[C@@H]2C[C@@H](O)CN2C(=O)[C@@H](c2cc(OCCN3CCC(O[C@H]4C[C@H](Oc5cc(N6C7CCC6CN(c6cc(-c8ccccc8)nnc6N)C7)ccn5)C4)CC3)no2)C(C)C)cc1 [compound 537, (2S,4R)-1-((2R)-2-(3-(2-(4-((1r,3R)-3-((4-(3-(3-amino-6-phenylpyridazin-4-yl)-3,8-diazabicyclo[3.2.1]octan-8-yl)pyridin-2-yl)oxy)cyclobutoxy)piperidin-1-yl)ethoxy)isoxazol-5-yl)-3-methylbutanoyl)-4-hydroxy-N-((S)-1-(4-(4-methylthiazol-5-yl)phenyl)ethyl)pyrrolidine-2-carboxamide] | – | > 30 nM | –
Cc1cc([C@H](C(=O)N2C[C@H](O)C[C@H]2C(=O)N[C@@H](C)c2ccc(-c3scnc3C)cc2)[C@H](C)COCCn2cc(-c3cc(-c4ccccc4O)nnc3N)cn2)on1 [compound 538, (2S,4R)-1-((2R,3S)-4-(2-(4-(3-amino-6-(2-hydroxyphenyl)pyridazin-4-yl)-1H-pyrazol-1-yl)ethoxy)-3-methyl-2-(3-methylisoxazol-5-yl)butanoyl)-4-hydroxy-N-((S)-1-(4-(4-methylthiazol-5-yl)phenyl)ethyl)pyrrolidine-2-carboxamide] | – | – | DC50 (SW1573 cells, Table 2D, read-out: *DC50): > 30 nM
